Data taken from ChEMBL document CHEMBL5143709, “Synthesis and characterization of an orally bioavailable small molecule agonist of the apelin receptor” (Bioorg Med Chem, 2022).
≈ marks a conversion by molar mass, not a printed value.

Tests used:
Apelin receptor [1] = biological target: T1, Apelin receptor (Homo sapiens, UniProt P35414); assay: Agonist activity at human APJ receptor expressed in CHO cells co-expressing Galphaq16 assessed as stimulation of Ca2+ mobilization measured at 1 sec interval for 90 sec by fluorescent Calcium 5-dye based FLIPR-calcium mobilization assay; type: functional, cell-based
T1 sequence (P35414 whole entry): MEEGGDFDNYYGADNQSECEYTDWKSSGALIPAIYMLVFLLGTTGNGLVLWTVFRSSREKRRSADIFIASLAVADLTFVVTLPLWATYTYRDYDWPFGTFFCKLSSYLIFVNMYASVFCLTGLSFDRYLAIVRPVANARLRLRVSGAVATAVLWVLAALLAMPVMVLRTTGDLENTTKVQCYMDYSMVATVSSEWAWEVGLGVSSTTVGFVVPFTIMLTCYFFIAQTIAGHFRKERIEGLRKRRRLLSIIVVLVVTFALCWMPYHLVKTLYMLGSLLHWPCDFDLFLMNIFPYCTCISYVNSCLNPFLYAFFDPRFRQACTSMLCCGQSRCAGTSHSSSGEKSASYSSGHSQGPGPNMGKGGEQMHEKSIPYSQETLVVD

Apelin receptor [2] = biological target: T1, Apelin receptor; assay: Agonist activity at human APJ receptor expressed in CHO cells assessed as inhibition of forskolin-induced cAMP accumulation measured after 30 mins by TR-FRET based LANCE cAMP assay; type: functional, cell-based
[3] = Metabolic stability in Sprague-Dawley rat liver microsomes assessed as parent compound remaining at 1 uM measured after 30 mins in the presence of NADPH by LC-MS analysis
[4] = Efflux ratio of apparent permeability from basolateral to apical side over apical to basolateral side in human Caco-2 cells by LC-MS/MS analysis; type: ADME, cell-based
[5] = Apparent permeability from basolateral to apical side in human Caco-2 cells by LC-MS/MS analysis; type: ADME, cell-based
[6] = biological target: T2, Apelin receptor (Homo sapiens) (UniProt P35414); assay: Agonist activity at human AGTRL1 expressed in CHO-K1 cells assessed as induction of beta-arrestin 2 recruitment by measuring maximal efficacy incubated for 90 mins by PathHunter assay relative to control; type: functional, cell-based; conditions: filed as agonist
T2 sequence (whole entry): T1 sequence (P35414 whole entry)

[7] = Plasma protein binding in rat by LC-MS/MS analysis; type: ADME, cell-free; conditions: read-out: PPB (converted)
Apelin receptor [8] = biological target: T1, Apelin receptor; assay: Agonist activity at human AGTRL1 expressed in CHO-K1 cells assessed as induction of beta-arrestin 2 recruitment incubated for 90 mins by PathHunter assay; type: functional, cell-based
[9] = Apparent permeability from apical to basolateral side in human Caco-2 cells by LC-MS/MS analysis; type: ADME, cell-based
[10] = Solubility of the compound at pH 7.4; type: physicochemical; conditions: buffer
[11] = Tmax in Sprague-Dawley rat at 10 mg/kg, po measured upto 24 hrs by LC-MS/MS analysis; type: ADME, organism-based; conditions: in vivo
[12] = AUC in Sprague-Dawley rat at 10 mg/kg, po measured upto 24 hrs by LC-MS/MS analysis; type: ADME, organism-based; parameters: time < 24 hrs, dose 10 mg/kg, route po; conditions: in vivo
[13] = Oral bioavailability in Sprague-Dawley rat at 10 mg/kg measured upto 24 hrs by LC-MS/MS analysis; type: ADME, organism-based; conditions: in vivo
[14] = Half-life in Sprague-Dawley rat at 10 mg/kg, po measured upto 24 hrs by LC-MS/MS analysis; type: ADME, organism-based; conditions: in vivo
[15] = Cmax in Sprague-Dawley rat at 10 mg/kg, po measured upto 24 hrs by LC-MS/MS analysis; type: ADME, organism-based; parameters: dose 10 mg/kg, time < 24 hrs, route po; conditions: in vivo
[16] = MRT in Sprague-Dawley rat at 10 mg/kg, po measured upto 24 hrs by LC-MS/MS analysis; type: ADME, organism-based; conditions: in vivo
[17] = Clearance in Sprague-Dawley rat at 10 mg/kg, po measured upto 24 hrs by LC-MS/MS analysis; type: ADME, organism-based; conditions: in vivo

EC50 (Apelin receptor [1]) [nM]	EC50 (Apelin receptor [2]) [nM]	remaining at 0.5 h, 1 µM [3] [%]	SMILES	further results
103	15	–	O=C(C[C@H](CCc1ccc(F)cc1)NC(=O)c1cc(-c2ccccc2C(F)(F)F)n(C2CCCC2)n1)NC1CCC1	–
–	2.4	74.6	O=C(C[C@H](CCN1CCCCC1)NC(=O)c1cc(-c2ccccc2C(F)(F)F)n(C2CCCC2)n1)NC1CCC1	efflux ratio [4]: 304; Papp B→A [5]: 52 ×10⁻⁶ cm/s
–	3.4	38.7	O=C(C[C@H](CCN1CCCC(F)(F)C1)NC(=O)c1cc(-c2ccccc2C(F)(F)F)n(C2CCCC2)n1)NC1CCC1	Emax [6]: 107%; fraction unbound [7]: 0.005; EC50 (Apelin receptor [8]): 5.4 nM; Papp A→B [9]: 33 ×10⁻⁶ cm/s; solubility [10]: 4 µM (≈ 2.38 µg/mL); efflux ratio [4]: 1; Papp B→A [5]: 36 ×10⁻⁶ cm/s
162	–	–	O=C(C[C@H](CCN1CC2(COC2)C1)NC(=O)c1cc(-c2ccccc2C(F)(F)F)n(C2CCCC2)n1)NC1CCC1	–
69	28	–	O=C(C[C@H](CCN1CCOCC1)NC(=O)c1cc(-c2ccccc2C(F)(F)F)n(C2CCCC2)n1)NC1CCC1	–
5120	–	–	CN(C[C@H](CC(=O)NC1CCC1)NC(=O)c1cc(-c2ccccc2C(F)(F)F)n(C2CCCC2)n1)C1CCCCC1	–
–	0.35	63.6	CC(C)CN(C)CC[C@@H](CC(=O)NC1CCC1)NC(=O)c1cc(-c2ccccc2C(F)(F)F)n(C2CCCC2)n1	–
834	–	–	CN(C)CC[C@@H](CC(=O)NC1CCC1)NC(=O)c1cc(-c2ccccc2C(F)(F)F)n(C2CCCC2)n1	–
–	54	–	Cc1cnn(CC[C@@H](CC(=O)NC2CCC2)NC(=O)c2cc(-c3ccccc3C(F)(F)F)n(C3CCCC3)n2)c1	Papp A→B [9]: 8 ×10⁻⁶ cm/s; efflux ratio [4]: 3; Papp B→A [5]: 24 ×10⁻⁶ cm/s
14	2	65.2	CN(CC[C@@H](CC(=O)NC1CCC1)NC(=O)c1cc(-c2ccccc2C(F)(F)F)n(C2CCCC2)n1)C1CCCCC1	Papp B→A [5]: 68 ×10⁻⁶ cm/s

Second part, the compound before the results:

SMILES	EC50 (Apelin receptor [1]) [nM]	EC50 (Apelin receptor [2]) [nM]	remaining at 0.5 h, 1 µM [3] [%]	further results
O=C(C[C@H](CCN1CCCC[C@H]1C(F)(F)F)NC(=O)c1cc(-c2ccccc2C(F)(F)F)n(C2CCCC2)n1)NC1CCC1	31	6	6.04	–
O=C(C[C@H](CCN1CCCCC1)NC(=O)c1cc(-c2ccccc2C2CC2)n(C2CCCC2)n1)NC1CCC1	–	6.4	70.1	–
O=C(C[C@H](CCN1CCCC(F)(F)C1)NC(=O)c1cc(-c2ccccc2C(F)(F)F)n(C2CCCC2)n1)Nc1nnn[nH]1	24	6.5	–	Emax [6]: 80%; fraction unbound [7]: < 0.006; EC50 (Apelin receptor [8]): 463 nM; Tmax [11]: 24 min; Papp A→B [9]: 8 ×10⁻⁶ cm/s; AUC at 24 h [12]: 5850 ng·h/mL; bioavailability [13]: > 95%; half-life [14]: 246 min; solubility [10]: > 1000 µM; efflux ratio [4]: 1; Cmax [15]: 1580 ng/mL; MRT [16]: 5.1 h; Papp B→A [5]: 8 ×10⁻⁶ cm/s; CL/F [17]: 28 mL/min/kg
CCc1ccccc1-c1cc(C(=O)N[C@@H](CCN2CCCCC2)CC(=O)NC2CCC2)nn1C1CCCC1	–	7	76.5	–
C#Cc1ccccc1-c1cc(C(=O)N[C@@H](CCN2CCCCC2)CC(=O)NC2CCC2)nn1C1CCCC1	267	–	–	–
CC(F)(F)c1ccccc1-c1cc(C(=O)N[C@@H](CCN2CCCCC2)CC(=O)NC2CCC2)nn1C1CCCC1	–	4.3	77.1	–
O=C(C[C@@H](CN1CCCC(F)(F)C1)NC(=O)c1cc(-c2ccccc2C(F)(F)F)n(C2CCCC2)n1)NC1CCC1	910	–	–	–
O=C(C[C@H](CCN1CCCCC1)NC(=O)c1cc(-c2cscn2)n(C2CCCC2)n1)NC1CCC1	> 10000	–	–	–
O=C(C[C@H](CCN1CCCCC1)NC(=O)c1cc(-c2cccc[n+]2[O-])n(C2CCCC2)n1)NC1CCC1	> 10000	–	–	–
CN(C(=O)[C@H](CC(=O)NC1CCC1)NC(=O)c1cc(-c2ccccc2C(F)(F)F)n(C2CCCC2)n1)C1CCCCC1	879	–	–	–
O=C(C[C@H](CCN1CCCCC1)NC(=O)c1cc(-c2ccsc2C(F)(F)F)n(C2CCCC2)n1)NC1CCC1	538	–	–	–
COc1cccc(F)c1-c1cc(C(=O)N[C@@H](CCN2CCCCC2)CC(=O)NC2CCC2)nn1C1CCCC1	–	5.6	74.3	–
O=C(C[C@@H](CN1CCC(F)(F)C1)NC(=O)c1cc(-c2ccccc2C(F)(F)F)n(C2CCCC2)n1)NC1CCC1	1210	–	–	–
